Measured values taken from patent US20250017964A1, “ENGINEERING OR INDUCING PDGF AND/OR PDGFR SIGNALING TO ENHANCE NK CELL THERAPY” (City of Hope, priority 2021, published 2025).

Tests used:
[1] = system: NK cells; assay: Annexin V and Ki67 staining of NK cells in vitro; type: cell-based, human; details: PDGF-D 50 ng/ml 48 h without IL-15
Description: FIGS. 4A-4J. PDGFRβ promotes IL-15-mediated NK cell survival in vitro and in vivo. (A) 5×10^5 sorted PDGFRβ^+ (Pos) and PDGFRβ^− (Neg) NK cells were cultured in vitro for 7 days in the presence of IL-15 (10 ng/ml). The cells were counted via trypan blue exclusion assay on days 3, 5, and 7 (n=5). (B and C) On day 7, Ki67 levels in PDGFRβ^+ and PDGFRβ^− NK cells were determined by flow cytometry (n=5). (D and E) Annexin V levels in PDGFRβ^+ and PDGFRβ^− NK cells on day 7 were determined by flow cytometry (n=5). (H-J) 1×10^7 sorted PDGFRβ^+ or PDGFRβ^− IL-15-transduced NK cells were injected into NOD/SCID/IL-2rg (NSG) mice. Blood samples were collected for analysis at the indicated time after adoptive transfer. Data shown are representative dot plots on day 9 after adoptive transfer (H), percentages (I), and absolute numbers (J) of PDGFRβ^+ and PDGFRβ^− NK cells on days 3, 6, and 9 after adoptive transfer (n=5). Data represent three independent experiments. […]
FIGS. 6A-6M. […] Cells were counted on days 3, 5, and 7 (n=3). […] Cells were counted on days 3, 5, and 7 (n=3). […] The cells were counted by trypan exclusion assay on days 3, 5, and 7 (n=3). […] Cells were counted by trypan exclusion assay on days 3, 5, and 7 (n=3). […] Cells were counted by trypan exclusion assay on days 3, 5, and 7 (n=3). […] Cell apoptosis and proliferation were analyzed by annexin V staining (J) and Ki-67 staining (K), respectively. […]

[2] = system: NOD/SCID/IL-2rg (NSG) mice; assay: PDGF-D injection after NK cell adoptive transfer into NSG mice, annexin V and Ki-67; details: in vivo, PDGF-D 1 μg per mouse i.v. daily for 3 days
Description: FIGS. 6A-6M. IL-15 maintains NK cell survival through a PDGF-D-PDGFRβ autocrine pathway. (A) 1×10^5 primary NK cells were cultured in vitro for 7 days in the presence of IL-15 (10 ng/ml) and PDGF-D (50 ng/ml). Cells were counted on days 3, 5, and 7 (n=3). (B) 1×10^5 primary NK cells were cultured in vitro for 7 days in the presence of IL-15 (10 ng/ml) and anti-PDGF-D (10 βg/ml) or control IgG (10 μg/ml). Cells were counted on days 3, 5, and 7 (n=3). […] The cells were counted by trypan exclusion assay on days 3, 5, and 7 (n=3). (D) 1×10^5 primary NK cells were cultured in vitro for 7 days in the presence of IL-15 (10 ng/ml) and PDGF-D (50 ng/ml) as well as anti-PDGFRβ (10 μg/ml). Cells were counted by trypan exclusion assay on days 3, 5, and 7 (n=3). (E) 1×10^5 primary NK cells were cultured in vitro for 7 days in the presence of IL-15 (10 ng/ml) and PDGF-D (50 ng/ml) as well as anti-NKp44 (10 μg/ml). Cells were counted by trypan exclusion assay on days 3, 5, and 7 (n=3). (F-I) Primary NK cells were cultured in the presence of IL-15 (10 ng/ml) and PDGF-D (50 ng/ml) as well as anti-NKp44 (10 μg/ml) or anti-PDGFRβ (10 Kg/ml) for 48 h. The cultured NK cells were then harvested for immunoblotting to determine protein levels of BCL-2, BCL-XL, and MCL-1 (n=3). […] Cell apoptosis and proliferation were analyzed by annexin V staining (J) and Ki-67 staining (K), respectively. […]

“PDGF-D: recombinant human PDGF-DD (1159-SB-025), R&D Systems” was tested, and the “apoptosis of PDGFRβ^+ NK cells (annexin V)” value ([1]; IL-15-pretreated sorted cells) was “inhibited apoptosis”, the “NK cell proliferation (Ki67)” value [1] was “did not affect NK cell proliferation” and the “NK cell proliferation (Ki67)” value [2] was “did not affect NK cell proliferation”. For the same substance, the “apoptosis of PDGFRβ^+ NK cells (annexin V)” value ([2]; peripheral blood) was “inhibited apoptosis”.
